Experiments:
[1] = target: mTORC1 (Homo sapiens, UniProt P42345); assay: mTOR/GbL/Raptor (mTORC1) ELISA Assay; type: biochemical; details: phosphorylation of 4E-BP1; 0.2 nM mTORC1, 10 μM ATP
Description: The measurement of mTORC1 enzyme activity was performed in an ELISA assay format following the phosphorylation of 4E-BP1 protein. All experiments were performed in the 384-well format. Generally, 0.5 μL DMSO containing varying concentrations of the test compound was mixed with 15 μL enzyme solution. Kinase reactions were initiated with the addition of 15 μL of substrates-containing solution. The assay conditions were as follows; 0.2 nM mTORC1, 10 μM ATP and 50 nM NHis-tagged 4E-BP1 in 20 mM Hepes, pH 7.2, 1 mM DTT, 50 mM NaCl, 10 mM MnCl2, 0.02 mg/mL BSA, 0.01% CHAPS, 50 mM β-glycerophosphate. Following an incubation of 120 minutes at ambient temperature, 20 μL of the reaction volume was transferred to a Ni-Chelate-coated 384-well plate. The binding step of the 4E-BP1 protein proceeded for 60 minutes, followed by washing 4 times each with 50 μL of Tris-buffered saline solution (TBS). Anti-phospho-4E-BP1 rabbit-IgG (20 μL, 1:5000) in 5% BSA-TBST (0.2% Tween-20 in TBS) was added and further incubated for 60 minutes. Incubation with a secondary HRP-tagged anti-IgG was similarly performed after washing off the primary antibody (4 washes of 50 μL). Following the final wash step with TBST, 20 μL of SuperSignal ELISA Femto (Pierce Biotechnology) was added and the luminescence measured using an EnVision plate reader.

[2] = target: PI3Kalpha (Homo sapiens, UniProt P42336); assay: PI3K Biochemical Assays (PI3K-alpha assay); details: ATP consumption, luciferase-luciferin; 1 μM ATP, 10 μM PIP2
PI3Kalpha, sequence (P42336 whole entry): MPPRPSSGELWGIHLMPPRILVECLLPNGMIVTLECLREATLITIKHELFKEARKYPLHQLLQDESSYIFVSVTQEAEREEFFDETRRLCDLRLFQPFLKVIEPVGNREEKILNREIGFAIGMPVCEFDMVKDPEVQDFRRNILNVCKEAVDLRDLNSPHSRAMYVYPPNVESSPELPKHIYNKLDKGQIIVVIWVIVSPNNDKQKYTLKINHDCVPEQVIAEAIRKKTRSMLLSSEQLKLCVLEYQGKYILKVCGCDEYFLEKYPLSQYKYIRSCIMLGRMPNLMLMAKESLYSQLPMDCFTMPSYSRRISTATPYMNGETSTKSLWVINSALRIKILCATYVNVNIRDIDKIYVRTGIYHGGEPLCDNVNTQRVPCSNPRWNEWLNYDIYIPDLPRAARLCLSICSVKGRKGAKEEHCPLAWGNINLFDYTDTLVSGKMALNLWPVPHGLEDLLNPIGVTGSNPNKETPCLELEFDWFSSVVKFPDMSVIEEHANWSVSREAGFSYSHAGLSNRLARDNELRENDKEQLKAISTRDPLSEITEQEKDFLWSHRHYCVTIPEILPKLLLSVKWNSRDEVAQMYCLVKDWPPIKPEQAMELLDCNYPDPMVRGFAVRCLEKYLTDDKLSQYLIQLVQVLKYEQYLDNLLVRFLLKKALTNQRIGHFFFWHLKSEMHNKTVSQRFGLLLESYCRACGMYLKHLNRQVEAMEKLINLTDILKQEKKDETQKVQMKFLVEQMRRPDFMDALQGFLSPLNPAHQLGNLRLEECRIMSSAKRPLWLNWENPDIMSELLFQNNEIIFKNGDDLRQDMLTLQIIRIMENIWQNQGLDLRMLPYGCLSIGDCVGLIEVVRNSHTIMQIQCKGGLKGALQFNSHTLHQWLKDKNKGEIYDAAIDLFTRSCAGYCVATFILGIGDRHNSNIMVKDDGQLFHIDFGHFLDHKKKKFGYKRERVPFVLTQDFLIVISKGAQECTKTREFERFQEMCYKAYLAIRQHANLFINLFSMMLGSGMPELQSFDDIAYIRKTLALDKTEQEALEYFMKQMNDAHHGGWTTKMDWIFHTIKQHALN
PI3Kalpha, sequence (P27986 whole entry partner): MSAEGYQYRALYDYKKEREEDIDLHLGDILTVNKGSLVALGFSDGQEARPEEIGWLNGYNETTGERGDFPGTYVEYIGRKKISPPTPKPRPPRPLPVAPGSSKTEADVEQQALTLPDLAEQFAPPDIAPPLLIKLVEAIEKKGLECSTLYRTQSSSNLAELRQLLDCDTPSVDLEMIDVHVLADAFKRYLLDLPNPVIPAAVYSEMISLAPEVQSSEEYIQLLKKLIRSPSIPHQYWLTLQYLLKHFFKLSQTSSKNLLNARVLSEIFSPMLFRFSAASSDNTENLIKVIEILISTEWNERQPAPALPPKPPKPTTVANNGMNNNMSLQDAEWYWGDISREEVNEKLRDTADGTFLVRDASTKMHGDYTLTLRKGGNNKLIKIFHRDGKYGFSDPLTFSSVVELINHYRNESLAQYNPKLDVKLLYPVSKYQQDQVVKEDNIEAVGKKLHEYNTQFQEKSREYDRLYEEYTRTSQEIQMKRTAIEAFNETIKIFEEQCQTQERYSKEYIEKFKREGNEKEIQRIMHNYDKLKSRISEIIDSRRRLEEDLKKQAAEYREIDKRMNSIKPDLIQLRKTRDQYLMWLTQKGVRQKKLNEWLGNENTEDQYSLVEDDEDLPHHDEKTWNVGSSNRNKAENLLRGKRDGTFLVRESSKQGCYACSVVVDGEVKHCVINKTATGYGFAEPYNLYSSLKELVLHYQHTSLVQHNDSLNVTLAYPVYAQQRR
Description: PI3Kn activity was measured as the percent of ATP consumed following the kinase reaction using luciferase-luciferin-coupled chemiluminescence. Reactions were conducted in 384-well white, medium binding microtiter plates (Greiner). Kinase reactions were initiated by combining test compounds, ATP, substrate (PIP2), and kinase in a 20 μL volume in a buffer solution. The standard PI3Kalpha assay buffer was composed 50 mM Tris, pH 7.5, 1 mM EGTA, 10 mM MgCl2, 1 mM DTT and 0.03% CHAPS. The standard assay concentrations for enzyme, ATP, and substrate were 3 nM, 1 μM, and 10 μM, respectively. The reaction mixture was incubated at ambient temperature for approximately 2 h. Following the kinase reaction, a 10 μL aliquot of luciferase-luciferin mix (Promega Kinase-Glo) was added and the chemiluminescence signal measured using a Victor2 or EnVision (Perkin Elmer). Total ATP consumption was limited to 40-60% and IC50 values of control compounds correlate well with literature references. Substituting PI3Kα with PI3Krβ, PI3Kγ, or PI3Kδ, the inhibitory activity of the compounds for the other isoforms of PI3K were measured. For the PI3Kβ and PI3Kδ assays, enzyme concentrations were 10 nM and 4 nM, respectively. For the PI3Kγ assay, enzyme concentration was 40 nM, the incubation time was 1 h, and the concentration of MgCl2 in the assay buffer was 5 mM.

IC50 [1] [nM] | IC50 [2] [nM] | SMILES
≤ 100 | ≤ 100 | Nc1nc2c(c(N3CCOc4ccc(-c5cnc6sc(N)nc6c5)cc4C3)n1)CCC2 [Compound 15, 6-[4-(2-amino-6,7-dihydro-5H-cyclopenta[d]pyrimidin-4-yl)-2,3,4,5-tetrahydro-1,4-benzoxazepin-7-yl][1,3]thiazolo[5,4-b]pyridin-2-amine]
≤ 100 | ≤ 100 | CC(=O)NCc1nc(C)c(C(C)C)c(N2CCOc3ccc(-c4cnc5sc(N)nc5c4)cc3C2)n1 [Compound 22, N-({4-[7-(2-amino[1,3]thiazolo[5,4-b]pyridin-6-yl)-2,3-dihydro-1,4-benzoxazepin-4(5H)-yl]-6-methyl-5-(1-methylethyl)pyrimidin-2-yl)methyl)acetamide]
≤ 100 | ≤ 100 | CCc1c(C)nc(N)nc1N1CCOc2ccc(-c3cnc4sc(N)nc4c3)cc2C1 [Compound 6, 6-[4-(2-amino-5-ethyl-6-methylpyrimidin-4-yl)-2,3,4,5-tetrahydro-1,4-benzoxazepin-7-yl][1,3]thiazolo[5,4-b]pyridin-2-amine]
≤ 100 | ≤ 100 | CCc1nc(N)nc(N2CCOc3ccc(-c4cnc5sc(N)nc5c4)cc3C2)c1C(C)C [Compound 29, 6-{4-[2-amino-6-ethyl-5-(1-methylethyl)pyrimidin-4-yl]-2,3,4,5-tetrahydro-1,4-benzoxazepin-7-yl}[1,3]thiazolo[5,4-b]pyridin-2-amine]
≤ 100 | ≤ 100 | Cc1nc(S(C)(=O)=O)nc(N2CCOc3ccc(-c4cnc5sc(N)nc5c4)cc3C2)c1C(C)C [Compound 24, 6-{4-[6-methyl-5-(1-methylethyl)-2-(methylsulfonyl)pyrimidin-4-yl]-2,3,4,5-tetrahydro-1,4-benzoxazepin-7-yl}[1,3]thiazolo[5,4-b]pyridin-2-amine]
100 to 500 | ≤ 100 | COCCc1c(C)nc(CN(C)C)nc1N1CCOc2ccc(-c3cnc4sc(N)nc4c3)cc2C1 [Compound 13, 6-(4-{2-[(dimethylamino)methyl]-6-methyl-5-[2-(methyloxy)ethyl]pyrimidin-4-yl}-2,3,4,5-tetrahydro-1,4-benzoxazepin-7-yl)[1,3]thiazolo[5,4-b]pyridin-2-amine]
≤ 100 | ≤ 100 | C=Cc1c(C)nc(N)nc1N1CCOc2ccc(-c3cnc4sc(N)nc4c3)cc2C1 [Compound 52, 6-[4-(2-amino-5-ethenyl-6-methylpyrimidin-4-yl)-2,3,4,5-tetrahydro-1,4-bcnzoxazepin-7-yl][1,3]thiazolo[5,4-b]pyridin-2-amine]
100 to 500 | 500 to 2500 | Nc1cc(N2CCOc3ccc(-c4cnc5sc(N)nc5c4)cc3C2)nc(Cl)n1 [Compound 51, 6-[4-(6-amino-2-chloropyrimidin-4-yl)-2,3,4,5-tetrahydro-1,4-benzoxazepin-7-yl][1,3]thiazolo[5,4-b]pyridin-2-amine]
≤ 100 | ≤ 100 | Cc1nc(CO)nc(N2CCOc3ccc(-c4cnc5sc(N)nc5c4)cc3C2)c1C(C)C [Compound 3, {4-[7-(2-amino[1,3]thiazolo[5,4-b]pyridin-6-yl)-2,3-dihydro-1,4-benzoxazepin-4(5H)-yl]-6-methyl-5-(1-methylethyl)pyrimidin-2-yl}methanol]
≤ 100 | ≤ 100 | CC(C)c1c(Br)nc(N)nc1N1CCOc2ccc(-c3cnc4sc(N)nc4c3)cc2C1 [Compound 19, 6-{4-[2-amino-6-bromo-5-(1-methylethyl)pyrimidin-4-yl]-2,3,4,5-tetrahydro-1,4-benzoxazepin-7-yl}[1,3]thiazolo[5,4-b]pyridin-2-amine]
≤ 100 | ≤ 100 | C#CCc1c(C)nc(N)nc1N1CCOc2ccc(-c3cnc4sc(N)nc4c3)cc2C1 [Compound 71, 6-[4-(2-amino-6-methyl-5-prop-2-yn-1-ylpyrimidin-4-yl)-2,3,4,5-tetrahydro-1,4-benzoxazepin-7-yl][1,3]thiazolo[5,4-b]pyridin-2-amine]
≤ 100 | ≤ 100 | N#Cc1cnc(N)cc1N1CCOc2ccc(-c3cnc4sc(N)nc4c3)cc2C1 [Compound 58, 6-amino-4-[7-(2-amino[1,3]thiazolo[5,4-b]pyridin-6-yl)-2,3-dihydro-1,4-benzoxazepin-4(5H)-yl]pyridine-3-carbonitrile]
100 to 500 | ≤ 100 | Cc1c(Cl)nc(N)nc1N1CCOc2ccc(-c3cnc4sc(N)nc4c3)cc2C1 [Compound 31, 6-[4-(2-amino-6-chloro-5-methylpyrimidin-4-yl)-2,3,4,5-tetrahydro-1,4-benzoxazepin-7-yl][1,3]thiazolo[5,4-b]pyridin-2-amine]
500 to 2500 | ≤ 100 | Cc1nc(CN(C)C)nc(N2CCOc3ccc(-c4cnc5sc(N)nc5c4)cc3C2)c1Br [Compound 64, 6-(4-{5-bromo-2-[(dimethylamino)methyl]-6-methylpyrimidin-4-yl}-2,3,4,5-tetrahydro-1,4-benzoxazepin-7-yl)[1,3]thiazolo[5,4-b]pyridin-2-amine]
≤ 100 | ≤ 100 | Cc1nc(N)nc(N2CCOc3c(Cl)cc(-c4cnc5sc(N)nc5c4)cc3C2)c1C(C)C [Compound 102, 6-{4-[2-amino-6-methyl-5-(1-methylethyl)pyrimidin-4-yl]-9-chloro-2,3,4,5-tetrahydro-1,4-benzoxazepin-7-yl}[1,3]thiazolo[5,4-b]pyridin-2-amine]
≤ 100 | ≤ 100 | CCCc1cnc(N)nc1N1CCOc2ccc(-c3cnc4sc(N)nc4c3)cc2C1 [Compound 33, 6-[4-(2-amino-5-propylpyrimidin-4-yl)-2,3,4,5-tetrahydro-1,4-benzoxazepin-7-yl][1,3]thiazolo[5,4-b]pyridin-2-amine]
≤ 100 | ≤ 100 | Cc1nc(CN(C)C)nc(N2CCOc3ccc(-c4cnc5sc(N)nc5c4)cc3C2)c1C(C)C [Compound 55, 6-(4-{2-[(dimethylamino)methyl]-6-methyl-5-(1-methylethyl)pyrimidin-4-yl}-2,3,4,5-tetrahydro-1,4-benzoxazepin-7-yl)[1,3]thiazolo[5,4-b]pyridin-2-amine]
100 to 500 | 100 to 500 | CCOC(=O)c1cnc(N)nc1N1CCOc2ccc(-c3cnc4sc(N)nc4c3)cc2C1 [Compound 48, ethyl 2-amino-4-[7-(2-amino[1,3]thiazolo[5,4-b]pyridin-6-yl)-2,3-dihydro-1,4-benzoxazepin-4(5H)-yl]pyrimidine-5-carboxylate]
≤ 100 | ≤ 100 | Cc1nc(C(N)=O)nc(N2CCOc3ccc(-c4cnc5sc(N)nc5c4)cc3C2)c1C(C)C [Compound 20, 4-[7-(2-amino[1,3]thiazolo[5,4-b]pyridin-6-yl)-2,3-dihydro-1,4-benzoxazepin-4(5H)-yl]-6-methyl-5-(1-methylethyl)pyrimidine-2-carboxamide]
≤ 100 | ≤ 100 | CC1=CC(C)(C)Cc2c1nc(N)nc2N1CCOc2ccc(-c3cnc4sc(N)nc4c3)cc2C1 [Compound 97, 4-[7-(2-amino[1,3]thiazolo[5,4-b]pyridin-6-yl)-2,3-dihydro-1,4-benzoxazepin-4(5H)-yl]-6,6,8-trimethyl-5,6-dihydroquinazolin-2-amine]
≤ 100 | ≤ 100 | COCCc1c(C)nc(N)nc1N1CCOc2ccc(-c3cnc4sc(N)nc4c3)cc2C1 [Compound 12, 6-(4-{2-amino-6-methyl-5-[2-(methyloxy)ethyl]pyrimidin-4-yl)-2,3,4,5-tetrahydro-1,4-benzoxazepin-7-yl)[1,3]thiazolo[5,4-b]pyridin-2-amine]
≤ 100 | 100 to 500 | CC1(C)Cc2nc(N3CCOc4ccc(-c5cnc6sc(N)nc6c5)cc4C3)sc2C(=O)N1 [Compound 85, 2-[7-(2-amino[1,3]thiazolo[5,4-b]pyridin-6-yl)-23-dihydro-1,4-benzoxazepin-4(5H)-yl]-6,6-dimethyl-6,7-dihydro[1,3]thiazolo[5,4-c]pyridin-4(5H)-one]
≤ 100 | ≤ 100 | Cc1nc(N)nc(N2CCOc3ccc(-c4cnc5sc(N)nc5c4)cc3C2)c1-c1ccccc1 [Compound 39, 6-[4-(2-amino-6-methyl-5-phenylpyrimidin-4-yl)-2,3,4,5-tetrahydro-1,4-benzoxazepin-7-yl][1,3]thiazolo[5,4-b]pyridin-2-amine]

Reference: patent publication US20140018347A1, “BENZOXAZEPINES AS INHIBITORS OF mTOR AND METHODS OF THEIR USE AND MANUFACTURE” (Exelixis, Inc., priority 2010, published 2014)
